Measurements: US20130156708A1, “PHENOL DERIVATIVES AS ANTIMICROBIAL AGENTS” (Symrise AG, priority 2011, published 2013)
≈ marks a conversion by molar mass, not a printed value.

How the values were obtained:
E. coli [1] = assay: Fast time-kill test, inactivation time for 99.9% kill, E. coli; assay type: cell-based; conditions: Escherichia coli; 0.1% concentration; averages of four independent experiments
Experimental: (§1) This protocol gives an exact description on how to perform a fast time-kill experiment. Fast time-kill experiments serve to determine the antimicrobial kill activity of a specific substance or substance mixture against a particular microorganism or a mixture of microorganisms. To kill (synonymous: to inactivate) a microorganism means that after the treatment, the microorganism has permanently lost its capacity to grow or to replicate.
(§2) Microorganisms are grown in suitable growth medium allowing for exponential growth. For E. coli, Salmonella spp., S. aureus, P. aeruginosa, and for C. albicans tryptic soy broth medium is used. One hundred ml Erlenmeyer flasks containing 20 ml growth medium are inoculated with 10^5 to 10^8 microbial cells/ml and incubated overnight under continuous shaking (120 rpm) at a temperature allowing for exponential growth, usually between 20 and 37° C. The temperature is chosen in such a way to ensure the exponential growth for the used microorganisms, for E. coli, Salmonella spp., S. aureus, P. aeruginosa, and for C. albicans 37° C. is used.
(§3) After reaching the stationary growth phase, 100 μl of this culture are transferred in a second Erlenmeyer flask containing 20 ml of the same growth medium. This culture is shaken for further (preferably to up to 7 hours) under identical conditions as described above. Subsequently, this culture is diluted in the same growth medium to 10^5 to 10^9, preferably to 10^6 to 10^8 cells/ml. With this suspension of microorganism (named “microorganism working suspension”) the time-kill test is performed.
(§4) Test substances are dissolved in DMSO, EtOH and/or H2O, preferably in H2O, to prepare a 100× concentrated stock solution. […]
(§5) Samples are taken from reaction tubes after defined time intervals (preferably 1, 2 and 5 min) to determine the number of surviving microorganisms. […] The number of surviving microorganisms is determined by aspiring 100 μl volumes from reaction tubes and mixing it immediately with 900 μl growth medium to prepare a 10^−1 dilution. […]

S. aureus [2] = assay: Fast time-kill test, inactivation time for 99.9% kill, S. aureus; assay type: cell-based; conditions: Staphylococcus aureus; 0.1% concentration; averages of four independent experiments
Experimental: as §1, §2, §3, §4, §5

C. albicans [3] = assay: Fast time-kill test, inactivation time for 99.9% kill, C. albicans; assay type: cell-based, Candida albicans; conditions: Candiada albicans; 0.1% concentration; averages of four independent experiments
Experimental: as §1, §2, §3, §4, §5

E. coli [4] = assay: Minimum inhibitory concentration, E. coli; assay type: cell-based, Escherichia coli; conditions: for MIC: Escherichia coli
Excerpt: (§6) Assessment of minimum inhibitory concentrations of thymol and 4-prenylphenol against versus microorganisms relevant for home and personal care:
(§7) The results of comparative assessment of minimum inhibitor concentration for both thymol and 4-prenylphenol are listed in Table 2.

S. aureus [5] = assay: Minimum inhibitory concentration, S. aureus; assay type: cell-based, Staphylococcus aureus; conditions: for MIC: Staphylococcus aureus
Excerpt: as §6, §7

C. albicans [6] = assay: Minimum inhibitory concentration, C. albicans; assay type: cell-based, Candida albicans; conditions: for MIC: Candida albicans
Excerpt: as §6, §7

Aspergillus niger = assay: Minimum inhibitory concentration, A. niger; assay type: cell-based; conditions: for MIC: Aspergillus niger
[7] = tested on: microorganisms relevant for home and personal care; assay: Minimum inhibitory concentration, further microorganisms of Table 2; assay type: cell-based
Excerpt: as §6, §7

[8] = tested on: E. coli, S. aureus and C. albicans; assay: Fast time-kill test, statements of the text over all investigated microorganisms; assay type: cell-based; conditions: 0.1% concentration, span over E. coli, averages of four independent experiments
Experimental: as §1
as §2, with “The temperature is chosen in such a way to ensure the exponential growth for the used microorganisms, for E. coli, Salmonella spp., S. aureus, P. aeruginosa, and for C. albicans 37° C. is used.” left out
as §5

E. coli [9] = assay: Synergistic activity (Kull) in fast time-kill experiments, E. coli; assay type: cell-based, Escherichia coli
Experimental: (§8) This protocol gives an exact description on how to perform a fast time-kill experiment. Fast time-kill experiments serve to determine the antimicrobial kill activity of a specific substance or substance mixture against a particular microorganism or a mixture of microorganisms.
as §2, §3
(§9) Test substances are dissolved in DMSO, EtOH and/or H2O, preferably in H2O, to prepare a 100× concentrated stock solution. In case the test substance is not completely soluble in H2O, the solvents are chosen in to ensure a complete dissolution of the test substance, the chosen concentration of DMSO and EtOH being as low as possible. For solid substances, complete dissolution has to be ensured. […] Preferably, the concentrations of the test substances in the 100× concentrated stock solution are between 1 and 100%, corresponding to 0.01 to 1% in the final test. The amount of the 100× concentrated stock solution in the final test should not exceed 1% in order to limit the concentration of DMSO or EtOH to 1% in the final test.
(§10) Fast time-kill tests are performed in 1000 μl volumes in 1.5 ml plastic reaction tubes (Eppendorf). The test is started by mixing (in this particular order) 100 μl microorganism working suspension with 890 μl tryptic soy broth growth medium containing 0.1% Tween® 80 and 10 μl 100× concentrated stock solution of test substances. Controls are included that are prepared as described above, but using 100× stock solution without test substances. During the test, tubes are incubated at the same temperature as the microorganisms were grown, usually 20 to 37° C. (for E. coli, Salmonella spp., S. aureus, P. aeruginosa, and for C. albicans 37° C. is used) in an Eppendorf Thermomixer and are vigorously shaken at 1400 rpm.
(§11) Samples are taken from reaction tubes after defined time intervals (preferably 1, 2 and 5 min) to determine the number of surviving microorganisms. At time 0 (immediately after starting the test) samples are taken from control tubes to determine the initial number of microorganisms in the test. The number of surviving microorganisms is determined by aspiring 100 μl volumes from reaction tubes and mixing it immediately with 900 μl growth medium to prepare a 10^−1 dilution. Further dilutions are prepared in this way from 10^−2 to 10^−4. One hundred μl volumes of the different dilutions are plated on tryptic soy broth agar plates and incubated for up to 48 h at the same temperature as the microorganisms were grown, usually 20 to 37° C. (for E. coli, Salmonella spp., S. aureus, P. aeruginosa, and for C. albicans 37° C. is used). Colonies grown on plates are counted and the numbers of surviving microorganisms are calculated for the different treatments and time points. For substances with low minimum inhibitory concentrations (MIC), sufficient dilution below the concentration of the MIC value has to be ensured.

S. aureus [10] = assay: Synergistic activity (Kull) in fast time-kill experiments, S. aureus; assay type: cell-based, Staphylococcus aureus
Experimental: as §8, §2, §3, §9, §10, §11

[11] = Taste test in alcohol free mouth wash formulation; conditions: compound 0.1%, peppermint Optamint Flavor 0.15%, versus sample without compound
Excerpt: The compounds of formulae (IIa) and (IIIa) were further tested in oral care formulations. In particular, an alcohol free mouth wash formulation in combination with a standard peppermint flavor (Optamint® Flavor, dosage 0.15%) plus compound of formula (IIa) or (IIIa), respectively, (dosage 0.1%) was compared with a sample without any compound of formula (I), but being otherwise identically composed. The taste impressions of the samples including the respective compound of formula (IIa) or (IIIa) are described as follows: […]

[12] = Taste test in silica toothpaste formulation; conditions: compound 0.1%, spearmint Optamint Flavor 1%, versus sample without compound
Excerpt: A silica toothpaste formulation in combination with a standard spearmint flavour (Optamint® Flavor, dosage 1%) plus the respective compound of formula (IIa) or (IIb) dosage 0.1% was compared to a sample without such compound of formula (I). The taste impressions of the sample including the compound of formula (IIa) or (IIb), respectively, are described as follows: […]

Row | SMILES | Inactivation time for 99.9% kill (E. coli [1]) [min] | Inactivation time for 99.9% kill (S. aureus [2]) [min] | Inactivation time for 99.9% kill (C. albicans [3]) [min] | MIC (E. coli [4]) [µg/mL] | MIC (S. aureus [5]) [µg/mL] | MIC (C. albicans [6]) [µg/mL] | MIC (Aspergillus niger) [µg/mL] | MIC ([7]; Corynebacterium xerosis) [µg/mL] | MIC ([7]; Fusobacterium nucleatum) [µg/mL] | MIC ([7]; Malassezia furfur) [µg/mL] | MIC ([7]; Porphyromonas gingivalis) [µg/mL] | MIC ([7]; Pseudomonas aeruginosa) [µg/mL] | MIC ([7]; Salmonalla enteritidis) [µg/mL] | MIC ([7]; Staphylococcus epidermidis) [µg/mL] | MIC ([7]; Streptococcus mutans) [µg/mL] | numbing/tingling feeling on the tongue [11] | numbing/tingling feeling on the tongue [12] | other results
1 | Cc1ccc(C(C)C)c(O)c1 [Thymol, reference compound] | 4.1 | 4.9 | 8.7 | 125 (≈ 832 µM) | 125 (≈ 832 µM) | 250 (≈ 1660 µM) | 1000 (≈ 6660 µM) | 125 (≈ 832 µM) | 125 (≈ 832 µM) | 1000 (≈ 6660 µM) | 125 (≈ 832 µM) | 1000 (≈ 6660 µM) | 250 (≈ 1660 µM) | 250 (≈ 1660 µM) | 250 (≈ 1660 µM) | – | – | –
2 | Oc1cc(Cl)ccc1Oc1ccc(Cl)cc1Cl [Triclosan] | >100 | >100 | >100 | – | – | – | – | – | – | – | – | – | – | – | – | – | – | Inactivation time for a 99.9% kill [8]: > 100 min
3 | CC(C)=CCc1ccc(O)cc1 [IIa, 4-(3-Methylbut-2-enyl)phenol] | 1.3 | 1.2 | 1.4 | 125 (≈ 771 µM) | 125 (≈ 771 µM) | 125 (≈ 771 µM) | 64 (≈ 394 µM) | 125 (≈ 771 µM) | 64 (≈ 394 µM) | 1000 (≈ 6160 µM) | 64 (≈ 394 µM) | > 1000 | 125 (≈ 771 µM) | 125 (≈ 771 µM) | 125 (≈ 771 µM) | clearly leaves a numbing/tingling feeling on the tongue | clearly leaves a numbing/tingling feeling on the tongue | minimum inhibitory concentration compared with Thymol (E. coli [4]; E. coli): equal to the one of Thymol; minimum inhibitory concentration compared with Thymol (S. aureus [5]; S. aureus): equal to the one of Thymol; minimum inhibitory concentration compared with Thymol (C. albicans [6]; C. albicans): a factor of two lower; antimicrobial activity against the mould A. niger (Aspergillus niger): strong antimicrobial activity; Inactivation rate k (E. coli [9]; 4-Prenylphenol 250 ppm): 0.94 min⁻¹; Inactivation time T99.9% (E. coli [9]; 4-Prenylphenol 250 ppm): 7.4 min; Reduction of surviving microorganisms (E. coli [9]; 4-Prenylphenol 250 ppm): 0.39; Inactivation rate k (S. aureus [10]; 4-Prenylphenol 400 ppm): 1.2 min⁻¹; Inactivation time T99.9% (S. aureus [10]; 4-Prenylphenol 400 ppm): 5.6 min; Reduction of surviving microorganisms (S. aureus [10]; 4-Prenylphenol 400 ppm): 0.29
4 | CC(C)=CCc1ccccc1O [IIIa, 2-(3-Methylbut-2-enyl)phenol] | – | – | – | – | – | – | – | – | – | – | – | – | – | – | – | clearly leaves a numbing/tingling feeling on the tongue | – | –
5 | COC(=O)c1ccc(O)cc1 [Methylparaben, reference compound] | – | – | – | – | – | – | – | – | – | – | – | – | – | – | – | – | – | Inactivation rate k (E. coli [9]; Methylparaben 2500 ppm): 0.09 min⁻¹; Inactivation time T99.9% (E. coli [9]; Methylparaben 2500 ppm): 89.1 min; Reduction of surviving microorganisms (E. coli [9]; Methylparaben 2500 ppm): 0.91; Inactivation rate k (S. aureus [10]; Methylparaben 5000 ppm): 0.40 min⁻¹; Inactivation time T99.9% (S. aureus [10]; Methylparaben 5000 ppm): 18.1 min; Reduction of surviving microorganisms (S. aureus [10]; Methylparaben 5000 ppm): 0.67
6 | C=C(C)CCc1ccc(O)cc1 [IIb, 4-(3-Methylbut-3-enyl)phenol] | – | – | – | – | – | – | – | – | – | – | – | – | – | – | – | – | clearly leaves a numbing/tingling feeling on the tongue | –
